19 molecules from patent US20100004128A1, “HERBICIDAL ISOXAZOLINE COMPOUNDS” (SYNGENTA CROP PROTECTION, INC., priority 2006, published 2010) can be followed below.

This assay deals with Monocotyledonous and dicotyledonous test plants. As to the kind of experiment: Herbicidal action, application pre-emergence. The class given is in vivo. The arrangement: key: 10=total damage to plant; 0=no damage to plant. The settings on record: spray solution 1000 mg/l, scale 0-10; for Herbicidal action (damage score) AGSTE: Agrostis tenius; for Herbicidal action (damage score) AMARE: Amaranthus retroflexus; for Herbicidal action (damage score) DIGSA: Digitaria sanguinalis; for Herbicidal action (damage score) POATR: Poa trivialis; for Herbicidal action (damage score) SETFA: Setaria faberi; for Herbicidal action (damage score) SETIT: Setaria italica. On the procedure:
Monocotyledonous and dicotyledonous test plants were sown in sterilised standard soil in seed trays each having 96 cells. After one day (pre-emergence) or after 8 to 9 days cultivation (post-emergence) under controlled conditions in a climatic chamber (cultivation at 23/17° C., day/night; 13 hours light; 50-60% humidity; after application at 24/19° C., day/night), the plants were treated with an aqueous spray solution of 1000 mg/l of the active ingredient used (incl. 10% DMSO as solvent). The plants were grown on in the climatic chamber until the test was evaluated (10=total damage to plant, 0=no damage to plant) after 9 or 13 days.

For the molecule `COCCn1nc(C(F)[S+]([O-])C2=NOC(C)(C)C2)c(C(F)(F)F)n1` (mixture of isomers) [1.24], the “Herbicidal action (damage score) AGSTE” value amounted to 10, the “Herbicidal action (damage score) AMARE” value stood at 10, the “Herbicidal action (damage score) DIGSA” value was determined as 10 and the “Herbicidal action (damage score) POATR” value was found to be 10. The “Herbicidal action (damage score) SETFA” value is recorded as 9.
On to `CC1(C)CC([S+]([O-])C(F)c2nn(C3CCCC3)nc2C(F)(F)F)=NO1` (mixture of isomers) [1.30], for which the “Herbicidal action (damage score) AGSTE” value is given as 10, the “Herbicidal action (damage score) AMARE” value was 10, the “Herbicidal action (damage score) DIGSA” value was found to be 9 and the “Herbicidal action (damage score) POATR” value turned out to be 10. The “Herbicidal action (damage score) SETFA” value came out at 8.
On to `C=CCn1nc(C(F)[S+]([O-])C2=NOC(C)(C)C2)c(C(F)(F)F)n1` (mixture of isomers) [1.33], for which the “Herbicidal action (damage score) AGSTE” value came to 10, the “Herbicidal action (damage score) AMARE” value came to 4, the “Herbicidal action (damage score) DIGSA” value came out at 10 and the “Herbicidal action (damage score) POATR” value came out at 10. Further, the “Herbicidal action (damage score) SETFA” value was 6.
With `CCn1ncc(C(F)[S+]([O-])C2=NOC(C)(C)C2)n1` (mixture of isomers) [1.39], the “Herbicidal action (damage score) AGSTE” value was determined as 10, the “Herbicidal action (damage score) AMARE” value is 9, the “Herbicidal action (damage score) DIGSA” value is 9 and the “Herbicidal action (damage score) POATR” value worked out at 10. Besides, the “Herbicidal action (damage score) SETFA” value came to 9.
In the case of `CC1(C)CC([S+]([O-])C(F)c2cn(C(C)(C)C)nn2)=NO1` (mixture of isomers) [Compound No. 2.03], the “Herbicidal action (damage score) AGSTE” value is listed as 8, the “Herbicidal action (damage score) AMARE” value was 2, the “Herbicidal action (damage score) DIGSA” value was 9 and the “Herbicidal action (damage score) POATR” value stood at 4. Further, the “Herbicidal action (damage score) SETFA” value is listed as 5.
Taken in the same sequence, the figures for `Cn1nnc(Br)c1C(F)[S+]([O-])C1=NOC(C)(C)C1` (mixture of isomers) [Compound No. 3.05] were 10, 8, 10, 10 and 9.
As for `Cn1nc(C(F)(F)F)c(C(F)(Cl)S(=O)(=O)C2=NOC(C)(C)C2)n1` (racemic) [1.10], the “Herbicidal action (damage score) AGSTE” value is recorded as 10, the “Herbicidal action (damage score) AMARE” value was 10, the “Herbicidal action (damage score) DIGSA” value is 10 and the “Herbicidal action (damage score) POATR” value is 10. Besides, the “Herbicidal action (damage score) SETIT” value is reported as 10.
In the case of `CCc1nn(CC)nc1C(F)S(=O)(=O)C1=NOC(C)(C)C1` (racemic) [1.12], the “Herbicidal action (damage score) AGSTE” value worked out at 10, the “Herbicidal action (damage score) AMARE” value stood at 10, the “Herbicidal action (damage score) DIGSA” value came out at 9 and the “Herbicidal action (damage score) POATR” value stood at 10. The “Herbicidal action (damage score) SETFA” value is reported as 9.
Turning to `CC(C)n1nc(C(F)(F)F)c(C(F)(F)[S+]([O-])C2=NOC(C)(C)C2)n1` (racemic) [1.18], the “Herbicidal action (damage score) AGSTE” value is 10, the “Herbicidal action (damage score) AMARE” value is on record as 10, the “Herbicidal action (damage score) DIGSA” value is on record as 10 and the “Herbicidal action (damage score) POATR” value is 10. The “Herbicidal action (damage score) SETFA” value was 9.
In the case of `Cc1nn(C(F)F)nc1C(F)(F)[S+]([O-])C1=NOC(C)(C)C1` (racemic) [1.22], the “Herbicidal action (damage score) AGSTE” value came to 10, the “Herbicidal action (damage score) AMARE” value was 10, the “Herbicidal action (damage score) DIGSA” value came out at 10 and the “Herbicidal action (damage score) POATR” value is reported as 10. Besides, the “Herbicidal action (damage score) SETFA” value was determined as 9.
As to `COCCn1nc(C(F)(F)F)c(C(F)(F)[S+]([O-])C2=NOC(C)(C)C2)n1` (racemic) [1.25], the “Herbicidal action (damage score) AGSTE” value stood at 10, the “Herbicidal action (damage score) AMARE” value is given as 10, the “Herbicidal action (damage score) DIGSA” value was 10 and the “Herbicidal action (damage score) POATR” value came out at 10. Also, the “Herbicidal action (damage score) SETFA” value worked out at 9.
Turning to `CCc1nn(C)nc1C(F)(F)[S+]([O-])C1=NOC(C)(C)C1` (racemic) [1.27], the “Herbicidal action (damage score) AGSTE” value is reported as 10, the “Herbicidal action (damage score) AMARE” value came to 10, the “Herbicidal action (damage score) DIGSA” value was 10 and the “Herbicidal action (damage score) POATR” value is on record as 10. For the same molecule, the “Herbicidal action (damage score) SETFA” value amounted to 9.
For the molecule `CC1(C)CC(S(=O)(=O)C(F)c2nn(C3CCCC3)nc2C(F)(F)F)=NO1` (racemic) [1.28], the “Herbicidal action (damage score) AGSTE” value turned out to be 10, the “Herbicidal action (damage score) AMARE” value is 9, the “Herbicidal action (damage score) DIGSA” value worked out at 9 and the “Herbicidal action (damage score) POATR” value is 10. Also, the “Herbicidal action (damage score) SETFA” value was 8.
`CC1(C)CC([S+]([O-])C(F)(F)c2nn(C3CCCC3)nc2C(F)(F)F)=NO1` (racemic) [1.31]: the “Herbicidal action (damage score) AGSTE” value worked out at 10, the “Herbicidal action (damage score) AMARE” value amounted to 0, the “Herbicidal action (damage score) DIGSA” value is recorded as 9 and the “Herbicidal action (damage score) POATR” value turned out to be 7. The “Herbicidal action (damage score) SETFA” value was 9.
For `C=CCn1nc(C(F)(F)F)c(C(F)(F)[S+]([O-])C2=NOC(C)(C)C2)n1` (racemic) [1.34], the “Herbicidal action (damage score) AGSTE” value was 10, the “Herbicidal action (damage score) AMARE” value is reported as 9, the “Herbicidal action (damage score) DIGSA” value is 10 and the “Herbicidal action (damage score) POATR” value is 10. In addition, the “Herbicidal action (damage score) SETFA” value is 10.
For the molecule `Cc1nn(C)nc1C(F)(Cl)S(=O)(=O)C1=NOC(C)(C)C1` (racemic) [Compound No. 1.07], the “Herbicidal action (damage score) AGSTE” value is listed as 10, the “Herbicidal action (damage score) AMARE” value is listed as 9, the “Herbicidal action (damage score) DIGSA” value is reported as 10 and the “Herbicidal action (damage score) POATR” value is 10. The “Herbicidal action (damage score) SETIT” value came out at 9.
With `Cn1nc(C(F)S(=O)(=O)C2=NOC(C)(C)C2)c(C(F)(F)F)n1` (racemic) [Compound No. 1.11], the “Herbicidal action (damage score) AGSTE” value was 10, the “Herbicidal action (damage score) AMARE” value is listed as 10, the “Herbicidal action (damage score) DIGSA” value amounted to 10 and the “Herbicidal action (damage score) POATR” value is on record as 10. Moreover, the “Herbicidal action (damage score) SETIT” value was 10.
Consider `CCn1nc(C(F)(F)F)c(C(F)(F)[S+]([O-])C2=NOC(C)(C)C2)n1` (racemic) [Compound No. 1.16], for which the “Herbicidal action (damage score) AGSTE” value is given as 10, the “Herbicidal action (damage score) AMARE” value is reported as 10, the “Herbicidal action (damage score) DIGSA” value worked out at 10 and the “Herbicidal action (damage score) POATR” value is 10. In addition, the “Herbicidal action (damage score) SETFA” value stood at 9.
Consider `Cc1nn(C(F)F)nc1C(F)S(=O)(=O)C1=NOC(C)(C)C1` (racemic) [Compound No. 1.19], for which the “Herbicidal action (damage score) AGSTE” value worked out at 10, the “Herbicidal action (damage score) AMARE” value is 10, the “Herbicidal action (damage score) DIGSA” value was found to be 10 and the “Herbicidal action (damage score) POATR” value is reported as 10. Further, the “Herbicidal action (damage score) SETFA” value was determined as 10.
